Like-named read-outs stand apart in the source and are kept apart here.
Key:
HIV-2/pROD10 = test: HIV-2 drug susceptibility in PBM cells; assay type: cell-based; conditions: Human immunodeficiency virus 2, PBMC
HBV = test: Anti-HBV assay (AD-38 cell line); assay type: cell-based; conditions: Hepatitis B virus
Procedure: The anti-HBV activity of the compounds was determined by treating the AD-38 cell line carrying wild type HBV under the control of tetracycline (see Ladner S. K., Otto M. J., Barker C. S., Zaifert K., Wang G. H., Guo J. T., Seeger C. & King R. W. Antimicrob. Agents Chemother. 1997, 41, 1715-20). Removal of tetracycline from the medium [Tet (−)] results in the production of HBV. The levels of HBV in the culture supernatant fluids from cells treated with the compounds were compared with that of the untreated controls. Control cultures with tetracycline [Tet (+)] were also maintained to determine the basal levels of HBV expression.

PBM cells [1] = test: Cytotoxicity assay in PBM cells; assay type: cell-based, human; conditions: Homo sapiens, PBMC; Table 5; read-out: Toxicity IC50 PBM
CEM cells = test: Cytotoxicity assay in CEM cells; assay type: cell-based, human; conditions: Homo sapiens, CCRF-CEM; Table 5; read-out: Toxicity IC50 CEM
Vero cells = test: Cytotoxicity assay in Vero cells; assay type: cell-based; conditions: Chlorocebus sabaeus, Vero, read-out: Toxicity IC50 Vero
MT-2 cells = test: Intracellular nucleotides formed in MT-2 cells; assay type: in vitro ADME; conditions: MT-2, four different concentrations
PBM cells [2] = conditions: human, 4 h, 50 μM
HSV-1 = HSV-1 drug susceptibility assay; assay type: cell-based; conditions: Human alphaherpesvirus 1
Excerpt: (§1) Agents Chemother. […] K., Otto, M. J., Schinazi, R. F. “Antiviral activities and cellular toxicities of modified 2′,3′-dideoxy-2′,3′-didehydrocytidine analogs” Antimicrob. Agents Chemother. 2002, 46, 3854-60. • ^cHSV-1 drug susceptibility assay was done as previously described in: Schinazi, R. F., Peters, J., Williams, C. C., Chance, D., Nahmias, A. J. “Effect of combinations of acyclovir with vidarabine or its 5′-monophosphate on herpes simplex virus in cell culture and in mice.” Antimicrob. Agents Chemother. 1982, 22, 499-507. • ^dHCV Replicon Assay^1: Huh 7 Clone B cells containing HCV Replicon RNA were seeded in a 96-well plate at 5000 cells/well, and the compounds were tested at 10 μM in triplicate immediately after seeding. Following five days incubation (37° C., 5% CO2), total cellular RNA was isolated by using versaGene RNA purification kit from Gentra. Replicon RNA and an internal control (TaqMan rRNA control reagents, Applied Biosystems) were amplified in a single step multiplex Real Time RT-PCR Assay. The antiviral effectiveness of the compounds was calculated by subtracting the threshold RT-PCR cycle of the test compound from the threshold RT-PCR cycle of the no-drug control (ΔCtHCV). A ΔCt of 3.3 equals a 1-log reduction (equal to 90% less starting material) in Replicon RNA levels. The cytotoxicity of the compounds was also calculated by using the ΔCt rRNA values. 77 (2′-Me-C) was used as the control. To determine EC90 and IC50 values^2, ΔCt: values were first converted into fraction of starting material^3 and then were used to calculate the % inhibition.

HCV Replicon RNA = test: HCV Replicon Assay (Huh 7 Clone B cells); assay type: cell-based; conditions: Hepatitis C virus, Huh-7, 120 h, tested at 10 μM, five days
Excerpt: as §1

Row | concentration at which phosphorylation reaches steady state (MT-2 cells) [µM] | major metabolite (PBM cells [2]) | SMILES | EC50 (HIV-2/pROD10) [µM] | EC90 (HIV-2/pROD10) [µM] | EC90 (HBV) [µM] | IC50 (PBM cells [1]) [µM] | IC50 (CEM cells) [µM] | IC50 (Vero cells; Table 5) [µM] | EC50 (HSV-1) [µM] | EC90 (HSV-1) [µM] | EC50 (HCV Replicon RNA) [µM] | EC90 (HCV Replicon RNA) [µM] | IC50 (Vero cells) [µM]
1 | – | – | Nc1ccn([C@H]2CS[C@@H](CO)O2)c(=O)n1 [Compound 3TC, (−)-2′,3′-dideoxy-3′-thiacytidine, reference compound] | 0.075 | 0.42 | < 10 | > 100 | > 100 | > 100 | – | – | – | – | –
2 | 30 | RFS-457-TP as the major metabolite | [N-]=[N+]=NC1C[C@H](n2cnc3c(O)nc(N)nc32)O[C@@H]1CO (some centres unmarked) [Compound 56, 3′-Azido-2′,3′-dideoxyguanosine] | – | – | – | – | – | – | – | – | – | – | –
3 | – | – | C=CCNc1nc(N)nc2c1ncn2[C@H]1CC(N=[N+]=[N-])[C@@H](CO)O1 (some centres unmarked) [drawing 47] | – | – | – | > 100 | > 100 | > 100 | > 100 | > 100 | > 10 | > 10 | –
4 | – | – | C=CCN(C)c1nc(N)nc2c1ncn2[C@H]1CC(N=[N+]=[N-])[C@@H](CO)O1 (some centres unmarked) [drawing 48] | – | – | – | > 100 | 27 | – | > 100 | > 100 | > 10 | > 10 | 32
5 | – | – | [N-]=[N+]=NC1C[C@H](n2cnc3c(NCCCCCO)nc(N)nc32)O[C@@H]1CO (some centres unmarked) [drawing 49] | – | – | – | > 100 | > 100 | > 100 | > 100 | > 100 | > 10 | > 10 | –
6 | – | – | CC(C)(CO)Nc1nc(N)nc2c1ncn2[C@H]1CC(N=[N+]=[N-])[C@@H](CO)O1 (some centres unmarked) [drawing 50] | – | – | – | > 100 | > 100 | > 100 | > 100 | > 100 | > 10 | > 10 | –
7 | – | – | CC(CO)Nc1nc(N)nc2c1ncn2[C@H]1CC(N=[N+]=[N-])[C@@H](CO)O1 (some centres unmarked) [drawing 51] | – | – | – | > 100 | > 100 | > 100 | > 100 | > 100 | > 10 | > 10 | –
8 | – | – | CN(C)c1nc(N)nc2c1ncn2[C@H]1CC(N=[N+]=[N-])[C@@H](CO)O1 (some centres unmarked) [drawing 53] | – | – | – | > 100 | > 100 | > 100 | > 100 | > 100 | > 10 | > 10 | –
9 | – | – | [N-]=[N+]=NC1C[C@H](n2cnc3c(NC4CC4)nc(N)nc32)O[C@@H]1CO (some centres unmarked) [drawing 56] | – | – | – | > 100 | > 100 | > 100 | > 100 | > 100 | > 10 | > 10 | –
10 | – | – | COCCNc1nc(N)nc2c1ncn2[C@H]1CC(N=[N+]=[N-])[C@@H](CO)O1 (some centres unmarked) [drawing 58] | – | – | – | > 100 | > 100 | > 100 | – | – | > 10 | > 10 | –

— patent US8815829B2, “3′-azido purine nucleotide prodrugs for treatment of viral infections” (priority 2008, dated 2014)
